Source: patent US20200003760A1, “IN-VITRO METHODS FOR CLASSIFYING DRUGS ACCORDING TO THEIR POTENTIAL TO CAUSE LIVER CELL INJURY” (Board of Trustees of Michigan State University, priority 2018, published 2020)
Read-outs that look alike come from different tables or passages of the source.

Experiments:
HepG2 cells [1] = test: Point of departure (POD) from censored concentration-response relationships in HepG2 cells; format: cell-based, human; conditions: censored CRRs, 4-parameter log-logistic model
Text: Partial, or censored, CRRs were then created using concentrations at or below the EC50. Nine CRC models were fit to the partial CRRs for all 24 drugs and compared to identify the best-fitting CRC model overall. Models were compared using Akaike Information Criteria (AIC; Akaike 1973, Burnham & Anderson 2002). The 4-parameter log-logistic model was selected to model censored CRRs for each of the 24 drugs since it provided the best fit (lowest AIC) for the majority of drugs. […] PODs provided a robust measure to characterize each of the CRCs using the low-concentration regions of the CRRs. In addition to POD.DRUG and POD.DRUG+TNF, POD.DIFF (i.e., POD.DRUG−POD.DRUG+TNF) and POD.RATIO (i.e., POD.DRUG/POD.DRUG+TNF) were used as covariates in the logistic regression model developed to classify the drugs according to their IDILI status. […] The horizontal blue line illustrates the mean control value estimated by pooling LDH % responses at the zero concentrations for both CRRs above. The horizontal dashed red line illustrates an upper limit of the pooled control data as the control mean plus 2 control standard deviations. PODs were then calculated for each curve as the effective concentration corresponding to the upper limit of the pooled control data, shown as vertical dashed red lines.

HepG2 cells [2] = test: Drug/cytokine-induced cytotoxicity (% LDH release) concentration-response in HepG2 cells; format: cell-based, human; design: key to Deltadiff: LDH release percentage points (drug/TNF Delta minus drug/VEH Delta); conditions: for R10 / R10 IFN / R10 TNF / R10 TNF/IFN: 10 percent increase in LDH response above min, 0 when D10 = 0; for R10 / Emax: drug alone (VEH); for R10 IFN: with IFN; for R10 TNF: with TNF; for R10 TNF/IFN / EC10 TNF/IFN: with TNF and IFN; for Deltadiff: Delta of drug/TNF curve minus Delta of drug/VEH curve (LDH percentage); for Emax: Homo sapiens, HepG2; for TNF change: D10TNF − D10VEH
How it was run: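 Cells at passage 6-16 were treated for 24 hours with drug or vehicle (water or DMSO <0.5%), alone or with TNF (10 ng/ml) and/or IFN (10 ng/ml), after overnight attachment. Cytotoxicity was scored as LDH released into medium; concentrations were expressed as [drug]/Cmax, with four-parameter logistic fits giving EC50, EC10 and R10 (+10 LDH points over baseline).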

[3] = maximal plasma concentration after pharmacologic dosing in human patients; cited from earlier work
[4] = cited from earlier work; for True classification: IDILI in human patients; for IDILI liability: criteria of Xu et al. (2008)
[5] = Logistic regression classification model: probability that a drug is associated with IDILI; design: species or system human; conditions: probability that drug is associated with IDILI; covariates Deltadiff, EC50 VEH, EC50 TNF, Delta VEH, Cmax; optimal cutoff 0.46
Text: Classification modeling using defined covariates. In the second phase of analysis, classification models were developed using logistic regression with covariates as independent variables in the analysis and known IDILI classification as the dependent variable. A model selection process was used to determine if a covariate or set of covariates is associated with IDILI liability. Covariates were first evaluated individually to determine how well a particular covariate classified drugs according to IDILI liability, and then covariates were evaluated in combination. Combinations of covariates were selected to maximize the ability of the model to distinguish between drugs associated or not with IDILI. Specifically, covariates that describe changes in efficacy (Delta, Deltadiff, etc.) were paired with covariates that describe changes in potency (EC50, EC10, R10, etc.) to find covariate combinations that led to models that most accurately discriminated between drugs that are and are not associated with IDILI. […] The logistic regression models follow the equation: […]
where ŷi is the calculated (predicted) probability that drug i with a vector of covariates xi is associated with IDILI. The β coefficients (β0, the regression intercept; and βi, the regression slopes for model covariates, xi) were derived from the logistic regression models using 1) combinations of the covariates (xi) generated by concentration-response modeling for each of the 24 drugs evaluated in this study, and 2) the true IDILI classification for the dependent variable yi (i.e., 1 for IDILI+drugs and 0 for IDILI-drugs). […] This occurs when a covariate almost perfectly separates observations into the appropriate categories. […] When separation or quasi-complete separation occurs, use of the standard method (i.e., maximum likelihood estimation) provides biased, unreliable estimates of βi.
Receiver operating characteristic (ROC) analysis. In the third phase of the statistical approach, the classification models, generated as logistic regression models using single covariates or combinations of covariates, were evaluated by ROC analysis to determine which model and corresponding sets of covariates led to the most accurate classification of drugs according to their potential to cause IDILI. An ROC curve was created for each model by graphing the true positive rate (sensitivity; i.e., proportion of drugs correctly classified as associated with IDILI) against the false positive rate (1-specificity; i.e., proportion of drugs incorrectly classified as associated with IDILI) at various probability cutoff thresholds (k). […] An area under the curve (AUC) and confidence interval was computed for each ROC curve (where each logistic regression model has one ROC curve). […] Corresponding to each ROC curve is an optimal threshold value (k*), the threshold yielding the highest point of accuracy on the curve (i.e., the point nearest the point […] on the curve). Thus, each ROC curve has a corresponding AUC and an optimal cutoff (k*) that corresponds to the highest point of accuracy on that ROC curve.

[6] = categorical, Delta threshold 10 LDH percentage points, read-out: D10
[7] = maximal LDH response, 24 h, read-out: max
[8] = value corresponding to 10% of Delta, NA = no significant increase

N[C@@H]1[C@H]2CN(c3nc4c(cc3F)c(=O)c(C(=O)O)cn4-c3ccc(F)cc3F)C[C@@H]12 [Trovafloxacin]
POD.DRUG versus POD.DRUG+TNF (HepG2 cells [1]): POD.DRUG occurs at a relatively higher concentration than POD.DRUG+TNF
R10 (HepG2 cells [2]): 0 [drug]/Cmax
R10 IFN (HepG2 cells [2]): 0 [drug]/Cmax
R10 TNF (HepG2 cells [2]): 4.8 [drug]/Cmax
R10 TNF/IFN (HepG2 cells [2]): 1.2 [drug]/Cmax
Deltadiff (HepG2 cells [2]): 27.4
cytotoxic interaction of drug with TNF (HepG2 cells [2]; HepG2, 24 h, TNF 10 ng/ml): TNF significantly enhanced the cytotoxicity
effect of IFN coexposure on the drug/TNF cytotoxic interaction (HepG2 cells [2]; HepG2, 24 h, TNF and IFN 10 ng/ml each): coexposure to IFN enhanced the cytotoxic interaction
cytotoxicity of drug on its own (LDH release) (HepG2 cells [2]; HepG2, 24 h, absence of cytokines): statistically significant increase in LDH release
Emax (HepG2 cells [2]; [6]): < 10%
Emax (HepG2 cells [2]; [7]): 18.7%
TNF change (HepG2 cells [2]; categorical): 1
EC10 TNF (HepG2 cells [2]; value corresponding to 10% of Delta, with TNF 10 ng/ml, NA = no significant increase): 2.3 [drug]/Cmax
EC10 TNF/IFN (HepG2 cells [2]; [8]): 0.5 [drug]/Cmax
Cmax [3]: 5000 nM

CC[C@H]1OC(=O)[C@H](C)[C@@H](O[C@H]2C[C@@](C)(OC)[C@@H](O)[C@H](C)O2)[C@H](C)[C@@H](O[C@@H]2O[C@H](C)C[C@H](N(C)C)[C@H]2O)[C@](C)(O)C[C@@H](C)CN(C)[C@H](C)[C@@H](O)[C@]1(C)O [Azithromycin]
R10 (HepG2 cells [2]): 0 [drug]/Cmax
R10 IFN (HepG2 cells [2]): 0 [drug]/Cmax
R10 TNF (HepG2 cells [2]): 0 [drug]/Cmax
R10 TNF/IFN (HepG2 cells [2]): 333.9 [drug]/Cmax
Deltadiff (HepG2 cells [2]): 0
synergy with cytokines to kill HepG2 cells (HepG2 cells [2]; HepG2, 24 h, TNF and/or IFN): modestly cytotoxic in the presence of TNF/IFN
Emax (HepG2 cells [2]; [6]): < 10%
Emax (HepG2 cells [2]; [7]): 11.6%
TNF change (HepG2 cells [2]; categorical): 0
EC10 TNF/IFN (HepG2 cells [2]; [8]): 59.2 [drug]/Cmax
True classification [4]: IDILI−
IDILI liability [4]: IDILI−
Cmax [3]: 500 nM
Estimated probability [5]: 0.1276

CS(=O)(=O)c1ccc(C2=C(c3ccccc3)C(=O)OC2)cc1 [Rofecoxib]
R10 (HepG2 cells [2]): 0 [drug]/Cmax
R10 IFN (HepG2 cells [2]): 0 [drug]/Cmax
R10 TNF (HepG2 cells [2]): 0 [drug]/Cmax
R10 TNF/IFN (HepG2 cells [2]): 0 [drug]/Cmax
Deltadiff (HepG2 cells [2]): 0
Emax (HepG2 cells [2]; [6]): < 10%
Emax (HepG2 cells [2]; [7]): 12.2%
TNF change (HepG2 cells [2]; categorical): 0
True classification [4]: IDILI−
IDILI liability [4]: IDILI−
Cmax [3]: 1000 nM
Estimated probability [5]: 0.1278
